Results reported in patent US10772909B2, “System and method for insulin-mimetic of cartilage, bone, or osteochondral repair and piezoelectric composite scaffold” (New Jersey Institute of Technology, priority 2016, dated 2020).

Tests used:
Human MSCs [1] = test: MSC growth on PCL scaffolds in growth medium (PicoGreen ds DNA cell number); type: cell-based; details: GM; for cell number, change from days 4 to 7: p<0.05; for cell number compared to the other groups: days 7 and 11
Protocol: MSCs were cultured on the scaffolds in the presence of Na2WO4 (Na2WO4.2H2O, MW=329.85 g/mol; Sigma Aldrich) in the range of 0.01-50 mM to determine which concentrations supported cell growth. Before cell seeding, scaffolds were cut into 6 mm diameter disks using a biopsy punch (Integra Miltek, York, Pa.), sterilized in 100% ethanol for 20 minutes and were air dried overnight. Cryopreserved MSCs were thawed and expanded in tissue culture treated polystyrene flasks (Nunc, Thermo Fisher Scientific, Waltham, Mass., USA) in growth medium (GM) comprised of Dulbecco's Modified Eagle's Medium (DMEM, Invitrogen, Grand Island, N.Y., USA), 10% fetal bovine serum (Hyclone, Thermo Fisher Scientific) and 1% antibiotic-antimycotic (Invitrogen) at 37° C. and 5% CO2 until 70-80% confluent. Cells were trypsinized using 0.25% Trypsin-EDTA (Thermo Fisher Scientific), resuspended in GM and then seeded onto scaffolds at 3.5×10^4 cells/cm^2 and cultured for 11 days in GM alone or with Na2WO4. Na2WO4 was added to GM leading to final Na2WO4 concentrations of 0, 0.01, 0.1, 1, 10 and 50 mM. Samples (n=4) were harvested and analyzed at days 4, 7 and 11 for cell number using the PicoGreen® ds DNA assay (Life Technologies).
MSCs of known cell number were used as a standard. Standards and samples were prepared by lysing the cells using 0.1% Triton X-100 (Sigma-Aldrich, Mo., USA). The cell lysate of samples and standards (n=4 per group) was mixed with an equal volume of Pico Green dye, which binds to the double-stranded (ds) DNA. Fluorescence intensity was measured with a microplate reader ((FLX800, Biotek Instruments, Vt., USA)) at 480 nm excitation and 520 nm emission. A standard curve of known cell number was used to determine the sample cell number.

aggrecan = test: Chondrogenesis culture: gene expression by RT-PCR, aggrecan; type: cell-based, human; details: for aggrecan gene expression vs 0 and 1 mM groups: CCM without insulin
Protocol: (§1) Chondrogenesis Culture. Cryopreserved MSCs were thawed and expanded in GM until 70-80% confluent. Cells were trypsininzed and then seeded on 6 mm diameter scaffold disks at 1.76×10^5 cells/cm^2 and cultured for 28 days in GM, chondrogenic induction medium (CCM), or CCM without insulin, according to previously published methods. CCM consisted of DMEM high glucose containing 4 mM L-glutamine (Invitrogen, Grand Island, N.Y., USA), 0.1 μM dexamethasone (Sigma-Aldrich), 0.17 mM ascorbic acid-2-phosphate (Wako Chemicals, Richmond, Va., USA), 1% ITS+(6.25 µg/mL insulin, 6.25 µg/mL transferrin, 6.25 ng/mL selenous acid, 5.35 μg/ml linoleic acid and 1.25 mg of bovine serum albumin) Premix Culture Supplement (Corning, Corning, N.Y., USA), 1× antibiotic-antimycotic, 1 mM sodium pyruvate (Sigma-Aldrich), 0.35 mM proline (Sigma-Aldrich), and 10 ng/mL recombinant human transforming growth factor-beta3 (TGF-β3, ProSpec, Israel). CCM without insulin consisted of CCM where the 1% ITS+Premix Culture Supplement was substituted with 1% stock solution (6.25 μg/ml transferrin and 6.25 ng/ml selenous acid, 5.35 μg/ml lionleic acid (Sigma-Aldrich) and 1.25 mg of bovine serum albumin (Fisher Scientific). Na2WO4 was added to all media leading to final Na2WO4 concentrations of 0, 0.01, 0.1 and 1 mM. Samples were harvested and analyzed for sulfated glycosaminoglycans (sGAG), cell number and gene expression at day 14 and 28 and for collagen type II and immunostaining at day 28.
(§2) Gene expression was evaluated using quantitative reverse transcription (RT)-polymerase chain reaction (PCR) analysis. RT-PCR was performed with RNeasy Micro Kit and SYBR Green RT-PCR Kit (Qiagen; Valencia, Calif., USA) using the MX4000 detection system (Stratagene) according to the manufacturer's protocol. Relative gene expression of SOX-9, aggrecan and collagen type II were determined. Samples (n=4 per group) were harvested and digested using Lysis Buffer. RNA was isolated from the samples using RNeasy Micro Kit (Qiagen) including DNA digestion step (RNase Free DNase Set; Qiagen). The RNA quantity and integrity were determined by measuring the absorbance at 260 nm and the absorbance ratio of 260 nm/280 nm, respectively, using Nanodrop™ Spectrophotometer (Thermo Fisher Scientific). Quantitative PCR analysis was performed using QuantiTect SYBR Green supermix including the QuantiTect Primer Assays. The reverse transcription step ran for 30 minutes at 50° C., 15 minutes at 95° C. of PCR activation followed by forty cycle of amplification consisting of 15 s denaturation at 94° C., 30 s of annealing at 55° C., and 30 s of extension at 72° C. A melting curve analysis of the RT-PCR product was included for each reaction. Samples were analyzed in triplicate and the value of each gene was normalized to the reference gene ribosomal protein, large, P0 (RPLP0) for the same sample (ΔCT). Primers were purchased from Qiagen (Hs_ACAN, QT00001365; Hs_SOX9, QT00001498; Hs_COL2A1, QT00049518; and Hs_RPLP0 QT00075012).

SOX-9 = test: Chondrogenesis culture: gene expression by RT-PCR, SOX-9; type: cell-based, human
Protocol: as §1, §2

Human MSCs [2] = test: Chondrogenesis culture: immunostaining, confocal microscopy; type: cell-based; details: day 28
Protocol: as §1
Immunostaining was used to observe cell morphology and collagen type II deposition at day 28. Samples were fixed using 4% paraformaldehyde for 20 minutes. Samples were permealized with 0.1% Triton-X for 15 minutes and then non-specific binding was blocked using 5% donkey serum (Sigma-Aldrich, Mo., USA) for 1 hour. Samples were incubated with mouse antihuman collagen type II antibody (EMD Millipore; Calif., USA) in 4° C. overnight. Samples were then incubated with conjugated northern light 493 secondary antibody (Donkey anti-Mouse IgG, Fisher Scientific, Rockford, Ill.) and rhodamine phalloidin (Life Technologies) for actin filament for 1 h. The nucleus was stained with 4′,6-diamidino-2-phenylindole (DAPI, Fisher Scientific). The images were taken using a confocal fluorescence microscope (Cl-si, Nikon, Japan).

[3] = Sodium tungstate in the scaffold: cell and tissue growth, cytocompatibility; type: cell-based; details: 0.01-5 weight (wt.) % sodium tungstate in the scaffold

SMILES: [Na+].[Na+].[O]=[W](=[O])([O-])[O-] [Na2WO4, sodium tungstate]
- cell number, change from days 4 to 7 (Human MSCs [1]; 0.01 mM Na2WO4): significantly increased in cell numbers
- cell number, change from days 4 to 7 (Human MSCs [1]; 0.1 mM Na2WO4): significantly increased in cell numbers
- cell number compared to the other groups (Human MSCs [1]; 1 mM Na2WO4): significantly lower cell numbers
- cell number compared to the other groups (Human MSCs [1]; 10 mM Na2WO4): significantly lower cell numbers
- cell number compared to the other groups (Human MSCs [1]; 50 mM Na2WO4): significantly lower cell numbers
- aggrecan gene expression vs 0 and 1 mM groups (aggrecan; 0.01 mM Na2WO4, days 14 and 28): significantly higher
- aggrecan gene expression vs 0 mM (aggrecan; 0.01 mM Na2WO4, CCM, day 14, p<0.05): lower aggrecan expression
- aggrecan gene expression vs 0 and 1 mM groups (aggrecan; 0.1 mM Na2WO4, days 14 and 28): significantly higher
- aggrecan gene expression vs all groups (aggrecan; 0.1 mM Na2WO4, CCM, days 14 and 28): significantly higher
- aggrecan gene expression (aggrecan; 1 mM Na2WO4, CCM): lowest gene expression
- aggrecan gene expression (chondrogenic genes) (aggrecan; GM with Na2WO4): no significant upregulation of chondrogenic genes
- SOX-9 gene expression vs 0 mM (SOX-9; 0.01 mM Na2WO4, CCM without insulin, day 14): significantly higher
- SOX-9 gene expression vs 0 mM (SOX-9; 0.01 mM Na2WO4, CCM, day 28, p<0.05): significantly higher SOX-9
- SOX-9 gene expression (SOX-9; 0.1 mM Na2WO4, CCM, day 14, p<0.05): highest SOX-9 gene expression
- SOX-9 gene expression vs 0 mM (SOX-9; 0.1 mM Na2WO4, CCM, day 28, p<0.01): significantly higher SOX-9
- SOX-9 gene expression (SOX-9; 1 mM Na2WO4, CCM): lowest gene expression
- SOX-9 gene expression (chondrogenic genes) (SOX-9; GM with Na2WO4): no significant upregulation of chondrogenic genes
- collagen type II immunostaining vs 0 mM (Human MSCs [2]; 0.01 mM Na2WO4, GM): more intense
- collagen type II immunostaining vs 0 mM (Human MSCs [2]; 0.1 mM Na2WO4, GM): more intense
- collagen type II immunostaining (Human MSCs [2]; CCM without insulin groups, except for 1 mM Na2WO4): showed collagen type II staining
- collagen type II immunostaining vs 0 mM (Human MSCs [2]; Na2WO4 groups, CCM): more intense collagen type II staining
- actin filament staining as an indicator of attachment (Human MSCs [2]; all groups): intense actin filament staining
- cell and tissue growth and cytocompatibility [3]: promoted excellent cell and tissue growth results and cytocompatibility results
